# In patent EP1043986B1, “MIXTURE AND PHARMACEUTICAL COMPOSITION COMPRISING Z-4-HYDROXYTAMOXIFEN AND CYCLODEXTRIN” (priority 1997, dated 1999):
# Test: 10-day stability test in water and in 96 % ethanol, room temperature, normal day light, capillary electrophoresis
# Type: physicochemical
# Details: 10-days storage in 96 % ethanol
# Procedure: A 10-day stability test in water and in 96 % ethanol at room temperature and exposure to normal day light, using 4-hydroxytamoxifen and the 4-hydrorytamoxifen/ γ-cyclodextrin complex prepared according to example 1 was performed. The change of E/Z isomer ratio was analyzed with capillary electrophoresis.
substance,measurement,setting,value
1-(p-β-dimethylaminoethoxyphenyl)-1-(p-hydroxyphenyl)-2-phenylbut-1-en [4-Hydroxytamoxifen],Efficiency value (ratio of uncomplexed and complexed 4-hydroxytamoxifen re/z values),,"4,65"
same,Ratio re/z,"room temperature, normal day light","0,223"
